In article PMC8318231, “Rate-of-Kill (RoK) assays to triage large compound sets for Chagas disease drug discovery: Application to GSK Chagas Box” (PLoS Neglected Tropical Diseases, 2021):

Experiments:
[1] = test system: T. cruzi intracellular amastigotes in H9c2 cells; assay: Rate-of-Kill (RoK) high-content imaging assay, amastigotes per cell (AM/CELL) and curve descriptors; type: cell-based, Trypanosoma cruzi; design: key to ME_24h / ME_48h / ME_72h: % reduction in parasite burden (cidal response); t50pct_MCC50 / t50pct_Cmax: unit not given here; conditions: for ME_24h: 24h; for ME_48h: 48h; for ME_72h: 72h; for AM/CELL NORM: sheet figure 4 A; for ME_24h (%): maximum effect at 24 h; for ME_24h (%) / ME_48h (%) / ME_72h (%): RoK assay; for ME_48h (%): maximum effect at 48 h; for ME_72h (%): maximum effect at 72 h; for ME 24h (maximum effect at 24 hours, intracellular amastigotes): maximum percentage of parasite burden reduction reached by any concentration
Method in brief: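 Readouts at each time point are amastigotes per cell and host nuclei count (cytotoxicity), from DRAQ5 high-content imaging. Infection: trypomastigotes on H9c2 at MOI 8 for 18 h. Dosing was 5 μM single point or 11 points, 1/3 steps from 50 μM. Effect scaled between 4 h infected and uninfected controls.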

[2] = test system: T. cruzi Tulahuen trypomastigotes; assay: T. cruzi trypomastigote assay (Cell Titer-Glo viability, ATP luminescence); type: cell-based, Trypanosoma cruzi; conditions: for Trypomastigotes pIC50 48 hours: 48 hours incubation; for Trypomastigotes pIC50 48 hours / Trypomastigotes pIC50 72 hours: pIC50 = -log10 IC50 in molar units; for Trypomastigotes pIC50 72 hours: 72 hours incubation; for 72 pIC50 (trypomastigotes, raw data of Fig 1D): 72 hours, plotted values, censored values given without sign; for 48 pIC50 / 72 pIC50: trypomastigote assay; for 48 pIC50: 48 h; for 72 pIC50: 72 h
Method in brief: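 Compounds were tested in dose response or once at a final 5 μM against 5 × 10^4 trypomastigotes per well (DMEM, 2% FBS), collected on days 5–8 from LLC-MK2 infected cultures. ATP luminescence via CellTiter-Glo reports live parasites; DMSO defines 0% and cell-free wells 100% effect.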

Row | SMILES | ME_24h ([1]; figure 5) | ME_48h ([1]; figure 5) | ME_72h ([1]; figure 5) | MCCE ([1]; RoK curve descriptor) [µM] | AM/CELL NORM ([1]; Time 4) | AM/CELL NORM ([1]; Time 24) | AM/CELL NORM ([1]; Time 48) | AM/CELL NORM ([1]; Time 72) | tlag_Cmax ([1]; at Cmax) [h] | t50pct_Cmax ([1]; at Cmax, figure 5) | tlag_Cmax ([1]; at Cmax, figure 5) | t50pct_MCC50 ([1]; at MCC50, figure 5) | tlag_MCC50 ([1]; at MCC50, figure 5) | MCCE ([1]; figure 5) | ME_24h (%) [1] [%] | ME_48h (%) [1] [%] | ME_72h (%) [1] [%] | ME 24h (maximum effect at 24 hours, intracellular amastigotes) [1] [%] | Trypomastigotes pIC50 48 hours [2] | Trypomastigotes pIC50 72 hours [2] | further results
1 | O=C(NCCc1ccccn1)C(c1cn[nH]c1)N1CCN(c2ccc(Cl)c(Cl)c2)CC1 (stereo not drawn) [TCMDC-143411] | -24.7459 | 74.9666 | 99.2836 | 0.2 | 6.745 | -24.7459 | 74.9666 | 99.2836 | 24.0 | 48 | 24 | 72 | 24 | 0.2058 | -24.8 | 75.0 | 99.3 | -24.7459 | < 4.3 | < 4.3 | MCC50 ([1]; RoK curve descriptor): 16.7 µM; t50%_Cmax ([1]; at Cmax): 48.0 h; t50%_MCC50 ([1]; at MCC50): 72.0 h; tlag_MCC50 ([1]; at MCC50): 24.0 h; MCC50 ([1]; figure 5, in µM): 16.6667; 72 pIC50 (trypomastigotes, raw data of Fig 1D) [2]: < 4.3; 48 pIC50 ([2]; figure 1A): < 4.3; 72 pIC50 ([2]; figure 1A): < 4.3; 72 pIC50 ([2]; figure 1B): < 4.3
2 | Cc1[nH]nc2c1C(c1ccc(OCc3ccccc3F)cc1)SCC(=O)N2 (stereo not drawn) [TCMDC-143328] | 2.825 | -7.539 | -52.7101 | 5.6 | 25.0577 | -15.4729 | -7.539 | -52.7101 | 24.0 | 72 | 24 | 72 | 72 | 5.556 | 2.8 | -7.5 | -52.7 | 2.825 | 5.1 | 5.1 | MCC50 ([1]; figure 5): 50 µM; 72 pIC50 (trypomastigotes, raw data of Fig 1D) [2]: 5.1; 48 pIC50 ([2]; figure 1A): 5.1; 72 pIC50 ([2]; figure 1A): 5.1; 72 pIC50 ([2]; figure 1B): 5.1
